Results reported in US20030032620A1, “Low molecular weight chondroitin sulphate compound having cosmetic activity” (priority 2001, published 2003).

Tests used:
Type in all cases: cell-based
Conditions in all cases: human fibroblast culture, radioactive labelling
human dermal fibroblasts [1] = assay: Leucine incorporation (protein synthesis) in human fibroblast cultures
From the text: (§1) In another embodiment of the invention the CSBP obtained in the present example was characterised by its efficiency in stimulating the fundamental metabolism of human dermal fibroblasts, more particularly by incorporation of various markers such as thymidine (cell growth), leucine (protein synthesis) and glucosamine (synthesis of GAG).
(§2) Tests in vitro on human fibroblast cultures are a means of evaluating the capacity of CSBP to stimulate the fundamental metabolism of the extracellular matrix of the cutis. Under conventional conditions of cultivation in triplicate, the CSBP according to the invention and positive references (EGF, epidermis growth factor at 10 ng/ml, TGF-β human transformation factor b at 10 ng/ml and vitamin C at 20 mg/ml) were placed in contact with fibroblasts. The neosynthesis can be quantified by radioactive labelling of the specific metabolites (amino acids). Two concentrations of CSBP were tested: 2 and 0.4 mg/ml. The results obtained in the following table were subjected to the Dunnett test:
(§3) The culture conditions were as follows:
(§4) Culture medium MEM/M199: sodium bicarbonate 1.87 mg/ml, L-glutamine 2 mM, penicillin 50 IU/ml and foetal calf serum 10%.

human dermal fibroblasts [2] = assay: Thymidine incorporation (cell growth) in human fibroblast cultures
From the text: as §1, §2, §3, §4

human dermal fibroblasts [3] = assay: Glucosamine incorporation (synthesis of GAG) in human fibroblast cultures
From the text: as §1, §2, §3, §4

In the case of `O=C1O[C@H]([C@@H](O)CO)C(O)=C1O` [VIT C, vitamin C, reference compound], the “% Leucine” value (human dermal fibroblasts [1]; positive reference vitamin C) is reported as “VIT C: 45%”.
For “EGF: epidermis growth factor, positive reference (NSDSECPLSHDGYCLHDGVCMYIEALDKYACNCVVGYIGERCQYRDLKWWELR; Epidermal growth factor; UniProt P01133 971-1023, looked up) [reference compound]”, the “% Thymidine” value (human dermal fibroblasts [2]; positive reference EGF at 10 ng/ml) was “EGF: 100%”.
With “low molecular weight chondroitin sulphate [CSBP]” the “% Thymidine” value (human dermal fibroblasts [2]; CSBP 0.4 mg/ml) was 74 p < 0.01%, the “% Thymidine” value (human dermal fibroblasts [2]; CSBP 2.0 mg/ml) was 183 p < 0.01% and the “% Leucine” value (human dermal fibroblasts [1]; CSBP 0.4 mg/ml) was 44 p < 0.05%. For the same compound, the “% Leucine” value (human dermal fibroblasts [1]; CSBP 2.0 mg/ml) was 88 p < 0.01%, the “% Glucosamine” value (human dermal fibroblasts [3]; CSBP 0.4 mg/ml) was 57 p < 0.01% and the “% Glucosamine” value (human dermal fibroblasts [3]; CSBP 2.0 mg/ml) was 178 p < 0.01%.
